Assays:
MET = target: T1, MET (Homo sapiens, UniProt P08581); experiment: KinomeScan; assay type: binding; conditions: read-out: % control
T1 construct: purchased DiscoveRx KINOMEscan

RET = target: T2, RET (Homo sapiens, UniProt P07949); experiment: KinomeScan; assay type: binding; conditions: read-out: % control
T2 construct: purchased DiscoveRx KINOMEscan

ERBB4 = target: T3, ERBB4 (Homo sapiens, UniProt Q15303); experiment: KinomeScan; assay type: binding; conditions: read-out: % control
T3 construct: purchased DiscoveRx KINOMEscan
T3 sequence (Q15303 26-1308): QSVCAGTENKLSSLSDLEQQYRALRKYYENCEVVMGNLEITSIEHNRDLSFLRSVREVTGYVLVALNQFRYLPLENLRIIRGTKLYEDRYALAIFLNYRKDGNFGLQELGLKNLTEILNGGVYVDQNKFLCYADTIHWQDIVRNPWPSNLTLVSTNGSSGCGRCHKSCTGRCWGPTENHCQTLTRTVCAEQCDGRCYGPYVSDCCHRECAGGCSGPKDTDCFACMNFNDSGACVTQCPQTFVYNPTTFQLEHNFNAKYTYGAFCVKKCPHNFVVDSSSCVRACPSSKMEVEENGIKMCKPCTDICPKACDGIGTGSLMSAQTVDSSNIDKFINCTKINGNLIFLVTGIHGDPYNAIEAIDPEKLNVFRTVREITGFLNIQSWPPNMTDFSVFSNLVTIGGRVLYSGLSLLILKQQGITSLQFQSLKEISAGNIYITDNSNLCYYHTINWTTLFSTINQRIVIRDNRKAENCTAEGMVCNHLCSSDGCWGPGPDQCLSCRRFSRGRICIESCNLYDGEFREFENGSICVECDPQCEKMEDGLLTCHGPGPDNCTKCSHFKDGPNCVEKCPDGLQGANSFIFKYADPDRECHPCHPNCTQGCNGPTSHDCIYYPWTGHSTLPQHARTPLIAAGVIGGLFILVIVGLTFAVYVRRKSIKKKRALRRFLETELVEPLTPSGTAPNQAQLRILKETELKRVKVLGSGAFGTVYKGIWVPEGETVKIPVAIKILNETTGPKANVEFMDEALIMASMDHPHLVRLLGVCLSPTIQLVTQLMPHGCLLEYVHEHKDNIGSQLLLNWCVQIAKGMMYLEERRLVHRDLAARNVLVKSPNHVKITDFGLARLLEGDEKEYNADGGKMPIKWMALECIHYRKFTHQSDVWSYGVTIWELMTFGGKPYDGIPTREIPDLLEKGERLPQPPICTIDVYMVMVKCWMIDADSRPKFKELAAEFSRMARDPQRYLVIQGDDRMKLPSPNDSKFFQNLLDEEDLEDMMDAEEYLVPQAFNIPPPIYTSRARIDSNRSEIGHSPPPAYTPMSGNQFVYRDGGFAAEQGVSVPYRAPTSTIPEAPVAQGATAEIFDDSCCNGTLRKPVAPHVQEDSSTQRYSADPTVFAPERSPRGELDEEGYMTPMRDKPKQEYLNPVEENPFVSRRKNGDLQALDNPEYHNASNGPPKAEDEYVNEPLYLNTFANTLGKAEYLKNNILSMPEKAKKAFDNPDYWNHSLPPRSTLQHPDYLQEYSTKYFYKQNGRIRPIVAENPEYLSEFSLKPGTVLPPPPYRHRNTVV

GSK3A = target: T4, GSK3A (Homo sapiens, UniProt P49840); experiment: KinomeScan; assay type: binding; conditions: read-out: % control
T4 construct: purchased DiscoveRx KINOMEscan

MYO3B = target: T5, MYO3B (Homo sapiens, UniProt Q8WXR4); experiment: KinomeScan; assay type: binding; conditions: read-out: % control
T5 construct: purchased DiscoveRx KINOMEscan

PIK3C2B = target: T6, PIK3C2B (Homo sapiens, UniProt O00750); experiment: KinomeScan; assay type: binding; conditions: read-out: % control
T6 construct: purchased DiscoveRx KINOMEscan

LCK = target: T7, LCK (Homo sapiens, UniProt P06239); experiment: KinomeScan; assay type: binding; conditions: read-out: % control
T7 construct: purchased DiscoveRx KINOMEscan

STK35 = target: T8, STK35 (Homo sapiens, UniProt Q8TDR2); experiment: KinomeScan; assay type: binding; conditions: read-out: % control
T8 construct: purchased DiscoveRx KINOMEscan

PLK3 = target: T9, PLK3 (Homo sapiens, UniProt Q9H4B4); experiment: KinomeScan; assay type: binding; conditions: read-out: % control
T9 construct: purchased DiscoveRx KINOMEscan

FGFR1 = target: T10, FGFR1 (Homo sapiens, UniProt P11362); experiment: KinomeScan; assay type: binding; conditions: read-out: % control
T10 construct: purchased DiscoveRx KINOMEscan

CDK9 = target: T11, CDK9 (Homo sapiens, UniProt P50750); experiment: KinomeScan; assay type: binding; conditions: read-out: % control
T11 construct: purchased DiscoveRx KINOMEscan
T11 sequence (P50750 whole entry): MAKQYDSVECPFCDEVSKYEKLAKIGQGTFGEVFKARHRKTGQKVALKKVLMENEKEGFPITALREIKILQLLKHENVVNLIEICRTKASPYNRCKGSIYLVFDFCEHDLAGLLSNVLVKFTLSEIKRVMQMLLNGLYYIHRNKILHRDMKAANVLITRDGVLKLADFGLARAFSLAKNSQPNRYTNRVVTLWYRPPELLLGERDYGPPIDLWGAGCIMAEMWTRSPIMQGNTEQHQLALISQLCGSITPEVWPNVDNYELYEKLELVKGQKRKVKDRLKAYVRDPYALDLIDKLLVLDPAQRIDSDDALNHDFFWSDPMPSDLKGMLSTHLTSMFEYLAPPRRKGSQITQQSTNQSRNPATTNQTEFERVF

CAMK2B = target: T12, CAMK2B (Homo sapiens, UniProt Q13554); experiment: KinomeScan; assay type: binding; conditions: read-out: % control
T12 construct: purchased DiscoveRx KINOMEscan
T12 sequence (Q13554 whole entry): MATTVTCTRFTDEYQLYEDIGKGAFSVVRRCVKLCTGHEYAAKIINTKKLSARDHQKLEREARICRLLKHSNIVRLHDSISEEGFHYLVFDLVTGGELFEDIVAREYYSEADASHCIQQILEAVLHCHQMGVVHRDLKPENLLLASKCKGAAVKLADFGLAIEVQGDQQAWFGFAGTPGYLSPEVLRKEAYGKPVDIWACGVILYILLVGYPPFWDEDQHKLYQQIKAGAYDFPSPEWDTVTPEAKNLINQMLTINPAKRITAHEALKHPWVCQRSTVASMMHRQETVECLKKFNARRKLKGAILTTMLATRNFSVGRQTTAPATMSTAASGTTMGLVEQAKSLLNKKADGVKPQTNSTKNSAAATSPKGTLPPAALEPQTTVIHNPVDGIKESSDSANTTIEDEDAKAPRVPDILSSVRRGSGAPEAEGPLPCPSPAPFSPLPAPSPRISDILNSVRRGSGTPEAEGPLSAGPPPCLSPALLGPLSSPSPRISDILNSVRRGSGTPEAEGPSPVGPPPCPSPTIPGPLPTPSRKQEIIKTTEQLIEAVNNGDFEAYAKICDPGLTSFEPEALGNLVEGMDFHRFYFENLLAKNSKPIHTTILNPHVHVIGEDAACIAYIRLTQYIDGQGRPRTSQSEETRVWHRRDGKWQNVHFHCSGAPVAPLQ

CLK3 = target: T13, CLK3 (Homo sapiens, UniProt P49761); experiment: KinomeScan; assay type: binding; conditions: read-out: % control
T13 construct: purchased DiscoveRx KINOMEscan

MET(M1250T) = target: T14, MET(M1250T) (Homo sapiens, UniProt P08581, M1250T); experiment: KinomeScan; assay type: binding; conditions: read-out: % control
T14 construct: purchased DiscoveRx KINOMEscan

MRCKA = target: T15, MRCKA (Homo sapiens, UniProt Q5VT25); experiment: KinomeScan; assay type: binding; conditions: read-out: % control
T15 construct: purchased DiscoveRx KINOMEscan

CSF1R-autoinhibited = target: T16, CSF1R-autoinhibited (Homo sapiens, UniProt P07333); experiment: KinomeScan; assay type: binding; conditions: read-out: % control
T16 construct: purchased DiscoveRx KINOMEscan

MAPKAPK2 = target: T17, MAPKAPK2 (Homo sapiens, UniProt P49137); experiment: KinomeScan; assay type: binding; conditions: read-out: % control
T17 construct: purchased DiscoveRx KINOMEscan

MARK2 = target: T18, MARK2 (Homo sapiens, UniProt Q7KZI7); experiment: KinomeScan; assay type: binding; conditions: read-out: % control
T18 construct: purchased DiscoveRx KINOMEscan
T18 sequence (Q7KZI7 whole entry): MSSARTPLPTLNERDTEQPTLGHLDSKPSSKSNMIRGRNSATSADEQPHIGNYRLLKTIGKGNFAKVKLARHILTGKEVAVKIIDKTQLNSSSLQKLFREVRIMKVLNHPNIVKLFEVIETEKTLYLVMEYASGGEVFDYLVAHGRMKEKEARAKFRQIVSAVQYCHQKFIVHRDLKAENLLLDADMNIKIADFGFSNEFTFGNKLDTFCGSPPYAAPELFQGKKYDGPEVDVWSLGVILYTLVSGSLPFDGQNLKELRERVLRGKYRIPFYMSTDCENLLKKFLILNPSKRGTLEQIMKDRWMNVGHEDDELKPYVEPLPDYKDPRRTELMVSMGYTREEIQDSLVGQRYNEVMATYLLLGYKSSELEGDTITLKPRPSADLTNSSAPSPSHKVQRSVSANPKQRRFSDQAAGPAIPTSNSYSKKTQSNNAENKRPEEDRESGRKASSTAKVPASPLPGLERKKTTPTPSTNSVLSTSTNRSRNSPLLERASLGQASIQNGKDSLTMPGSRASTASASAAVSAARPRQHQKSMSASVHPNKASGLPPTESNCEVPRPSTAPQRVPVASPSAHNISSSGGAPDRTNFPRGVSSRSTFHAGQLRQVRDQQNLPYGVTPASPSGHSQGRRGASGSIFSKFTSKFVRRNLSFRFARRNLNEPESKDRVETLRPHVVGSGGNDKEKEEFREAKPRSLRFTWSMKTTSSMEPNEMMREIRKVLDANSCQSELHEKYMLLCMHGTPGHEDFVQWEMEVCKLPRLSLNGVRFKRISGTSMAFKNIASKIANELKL

QSK = target: T19, QSK (Homo sapiens, UniProt Q9Y2K2); experiment: KinomeScan; assay type: binding; conditions: read-out: % control
T19 construct: purchased DiscoveRx KINOMEscan

TLK2 = target: T20, TLK2 (Homo sapiens, UniProt Q86UE8); experiment: KinomeScan; assay type: binding; conditions: read-out: % control
T20 construct: purchased DiscoveRx KINOMEscan
T20 sequence (Q86UE8 whole entry): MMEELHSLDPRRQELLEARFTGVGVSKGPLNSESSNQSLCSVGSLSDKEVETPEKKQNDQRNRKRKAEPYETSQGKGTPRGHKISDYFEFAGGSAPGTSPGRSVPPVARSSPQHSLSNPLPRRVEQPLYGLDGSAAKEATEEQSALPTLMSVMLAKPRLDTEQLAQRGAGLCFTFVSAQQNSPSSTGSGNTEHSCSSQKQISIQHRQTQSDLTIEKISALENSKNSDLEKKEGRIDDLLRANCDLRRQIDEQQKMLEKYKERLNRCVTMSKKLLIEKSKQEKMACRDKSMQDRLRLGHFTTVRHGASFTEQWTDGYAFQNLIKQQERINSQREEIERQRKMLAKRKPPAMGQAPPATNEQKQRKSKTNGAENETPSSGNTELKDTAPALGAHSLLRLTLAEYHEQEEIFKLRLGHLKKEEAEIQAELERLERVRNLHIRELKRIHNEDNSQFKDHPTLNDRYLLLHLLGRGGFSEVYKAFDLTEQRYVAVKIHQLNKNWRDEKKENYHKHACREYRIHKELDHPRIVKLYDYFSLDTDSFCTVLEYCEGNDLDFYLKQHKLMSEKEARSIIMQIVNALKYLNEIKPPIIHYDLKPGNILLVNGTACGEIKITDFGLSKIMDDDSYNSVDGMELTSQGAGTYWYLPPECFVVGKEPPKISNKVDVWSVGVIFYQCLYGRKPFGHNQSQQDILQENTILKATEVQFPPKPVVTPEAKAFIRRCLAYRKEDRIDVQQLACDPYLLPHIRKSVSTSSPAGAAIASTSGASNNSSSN

BMX = target: T21, BMX (Homo sapiens, UniProt P51813); experiment: KinomeScan; assay type: binding; conditions: read-out: % control
T21 construct: purchased Invitrogen (SelectScreen service)
T21 sequence (P51813 whole entry): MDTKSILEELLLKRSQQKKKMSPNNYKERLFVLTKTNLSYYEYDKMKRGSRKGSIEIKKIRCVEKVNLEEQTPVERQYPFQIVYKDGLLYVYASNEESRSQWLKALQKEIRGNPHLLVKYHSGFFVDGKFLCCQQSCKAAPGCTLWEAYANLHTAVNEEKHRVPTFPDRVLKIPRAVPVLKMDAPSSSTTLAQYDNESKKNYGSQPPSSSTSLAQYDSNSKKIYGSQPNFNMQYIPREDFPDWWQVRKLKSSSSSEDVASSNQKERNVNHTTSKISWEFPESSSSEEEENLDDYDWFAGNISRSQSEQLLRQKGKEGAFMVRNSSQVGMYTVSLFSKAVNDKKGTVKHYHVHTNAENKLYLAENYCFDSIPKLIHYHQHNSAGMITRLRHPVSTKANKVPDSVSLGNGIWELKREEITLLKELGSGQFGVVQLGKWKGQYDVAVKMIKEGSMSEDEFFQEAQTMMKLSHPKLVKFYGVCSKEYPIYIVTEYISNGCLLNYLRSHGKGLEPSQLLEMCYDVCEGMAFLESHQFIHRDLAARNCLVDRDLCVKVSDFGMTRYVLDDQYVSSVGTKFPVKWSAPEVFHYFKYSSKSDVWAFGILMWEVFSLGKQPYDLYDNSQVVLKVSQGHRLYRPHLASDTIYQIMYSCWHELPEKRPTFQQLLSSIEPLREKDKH

S6K1 = target: T22, S6K1 (Homo sapiens, UniProt P23443); experiment: KinomeScan; assay type: binding; conditions: read-out: % control
T22 construct: purchased DiscoveRx KINOMEscan

[1] = test system: BaF3-TEL-EGFR-T790M-C797S; experiment: Anti-proliferation, BaF3 isogenic cell lines (CellTiter-Glo); assay type: cell-based; conditions: Mus musculus, 72 hours, triplet testing
[2] = target: T23, RSK3(Kin.Dom.1-N-terminal) (Homo sapiens, UniProt Q15349); experiment: KinomeScan; assay type: binding; conditions: read-out: % control
T23 construct: RSK3(Kin.Dom.1-N-terminal); purchased DiscoveRx KINOMEscan

CDK4 = target: T24, CDK4 (Homo sapiens, UniProt P11802); experiment: KinomeScan; assay type: binding; conditions: read-out: % control
T24 construct: purchased DiscoveRx KINOMEscan

PCTK1 = target: T25, PCTK1 (Homo sapiens, UniProt Q00536); experiment: KinomeScan; assay type: binding; conditions: read-out: % control
T25 construct: purchased DiscoveRx KINOMEscan

HIPK1 = target: T26, HIPK1 (Homo sapiens, UniProt Q86Z02); experiment: KinomeScan; assay type: binding; conditions: read-out: % control
T26 construct: purchased DiscoveRx KINOMEscan

PRKX = target: T27, PRKX (Homo sapiens, UniProt P51817); experiment: KinomeScan; assay type: binding; conditions: read-out: % control
T27 construct: purchased DiscoveRx KINOMEscan

GSK3B = target: T28, GSK3B (Homo sapiens, UniProt P49841); experiment: KinomeScan; assay type: binding; conditions: read-out: % control
T28 construct: purchased DiscoveRx KINOMEscan
T28 sequence (P49841 whole entry): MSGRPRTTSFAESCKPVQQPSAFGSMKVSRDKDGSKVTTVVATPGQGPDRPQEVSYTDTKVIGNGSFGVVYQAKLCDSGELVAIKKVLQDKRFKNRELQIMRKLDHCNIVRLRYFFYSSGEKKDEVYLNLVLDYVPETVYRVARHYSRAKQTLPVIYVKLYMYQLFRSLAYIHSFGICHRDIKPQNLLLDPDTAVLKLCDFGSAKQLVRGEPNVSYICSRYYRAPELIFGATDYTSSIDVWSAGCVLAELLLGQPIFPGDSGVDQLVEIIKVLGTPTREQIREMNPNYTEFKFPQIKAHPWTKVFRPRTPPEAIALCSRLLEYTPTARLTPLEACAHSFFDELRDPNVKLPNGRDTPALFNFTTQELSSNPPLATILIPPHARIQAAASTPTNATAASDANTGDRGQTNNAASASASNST

NLK = target: T29, NLK (Homo sapiens, UniProt Q9UBE8); experiment: KinomeScan; assay type: binding; conditions: read-out: % control
T29 construct: purchased DiscoveRx KINOMEscan

TAOK1 = target: T30, TAOK1 (Homo sapiens, UniProt Q7L7X3); experiment: KinomeScan; assay type: binding; conditions: read-out: % control
T30 construct: purchased DiscoveRx KINOMEscan

CDK2 = target: T31, CDK2 (Homo sapiens, UniProt P24941); experiment: KinomeScan; assay type: binding; conditions: read-out: % control
T31 construct: purchased DiscoveRx KINOMEscan

GRK4 = target: T32, GRK4 (Homo sapiens, UniProt P32298); experiment: KinomeScan; assay type: binding; conditions: read-out: % control
T32 construct: purchased DiscoveRx KINOMEscan

[3] = test system: NSCLC cell lines (H1975, HCC827, PC9, H3255; EGFR wt lines); experiment: Apoptosis effect examination (Caspase-3 and PARP cleavage); assay type: cell-based, human
Text: We then examined CHMFL-EGFR-26's effect on cell cycle progression and apoptosis.
Cells were then washed in PBS and lysed in cell lysis buffer. PARP, Caspase-3, GAPDH antibodies were used for immunoblotting.

IKK-beta = target: T33, IKK-beta (Homo sapiens, UniProt O14920); experiment: KinomeScan; assay type: binding; conditions: read-out: % control
T33 construct: purchased DiscoveRx KINOMEscan

[4] = target: T34, RSK2(Kin.Dom.1-N-terminal) (Homo sapiens, UniProt P51812); experiment: KinomeScan; assay type: binding; conditions: read-out: % control
T34 construct: RSK2(Kin.Dom.1-N-terminal); purchased DiscoveRx KINOMEscan

FGR = target: T35, FGR (Homo sapiens, UniProt P09769); experiment: KinomeScan; assay type: binding; conditions: read-out: % control
T35 construct: purchased DiscoveRx KINOMEscan

HCK = target: T36, HCK (Homo sapiens, UniProt P08631); experiment: KinomeScan; assay type: binding; conditions: read-out: % control
T36 construct: purchased DiscoveRx KINOMEscan

PAK4 = target: T37, PAK4 (Homo sapiens, UniProt O96013); experiment: KinomeScan; assay type: binding; conditions: read-out: % control
T37 construct: purchased DiscoveRx KINOMEscan

SgK110 = target: T38, SgK110 (Homo sapiens, UniProt P0C264); experiment: KinomeScan; assay type: binding; conditions: read-out: % control
T38 construct: purchased DiscoveRx KINOMEscan

EPHA3 = target: T39, EPHA3 (Homo sapiens, UniProt P29320); experiment: KinomeScan; assay type: binding; conditions: read-out: % control
T39 construct: purchased DiscoveRx KINOMEscan

C=CC(=O)N1CCC[C@@H](n2nc(-c3ccc(OCc4cccc(C)n4)c(Cl)c3)c3c(N)ncnc32)C1 [CHMFL-EGFR-26]
remaining binding at 1 µM (MET): 96%
remaining binding at 1 µM (RET): 95%
remaining binding at 1 µM (ERBB4): 0.45%
remaining binding at 1 µM (GSK3A): 100%
remaining binding at 1 µM (MYO3B): 98%
remaining binding at 1 µM (PIK3C2B): 100%
remaining binding at 1 µM (LCK): 33%
remaining binding at 1 µM (STK35): 23%
remaining binding at 1 µM (PLK3): 85%
remaining binding at 1 µM (FGFR1): 100%
remaining binding at 1 µM (CDK9): 90%
remaining binding at 1 µM (CAMK2B): 97%
remaining binding at 1 µM (CLK3): 100%
remaining binding at 1 µM (MET(M1250T)): 90%
remaining binding at 1 µM (MRCKA): 64%
remaining binding at 1 µM (CSF1R-autoinhibited): 100%
remaining binding at 1 µM (MAPKAPK2): 89%
remaining binding at 1 µM (MARK2): 95%
remaining binding at 1 µM (QSK): 71%
remaining binding at 1 µM (TLK2): 80%
remaining binding at 1 µM (BMX): 27%
remaining binding at 1 µM (S6K1): 100%
GI50 [1]: 3.7 µM
remaining binding at 1 µM [2]: 99%
remaining binding at 1 µM (CDK4): 100%
remaining binding at 1 µM (PCTK1): 100%
remaining binding at 1 µM (HIPK1): 98%
remaining binding at 1 µM (PRKX): 81%
remaining binding at 1 µM (GSK3B): 97%
remaining binding at 1 µM (NLK): 70%
remaining binding at 1 µM (TAOK1): 100%
remaining binding at 1 µM (CDK2): 100%
remaining binding at 1 µM (GRK4): 88%
Caspase-3 and PARP cleavage (apoptosis) ([3]; EGFR wt NSCLC cell lines, 72hrs): no cleaved Caspase-3 and PARP detected
Caspase-3 and PARP cleavage (apoptosis) ([3]; H1975, HCC827, PC9 and H3255, 30nM, 24hrs): sufficient to induce Caspase-3 and PARP cleavage
remaining binding at 1 µM (IKK-beta): 98%
remaining binding at 1 µM [4]: 95%
remaining binding at 1 µM (FGR): 86%
remaining binding at 1 µM (HCK): 44%
remaining binding at 1 µM (PAK4): 94%
remaining binding at 1 µM (SgK110): 100%
remaining binding at 1 µM (EPHA3): 89%
